Reference: patent EP4529915A1, “LIPOSOMAL PREPARATIONS FOR USE IN TREATING CANCER” (DG-Nika AG, priority 2023, dated 2025)
Read-outs that look alike come from different tables or passages of the source.

Key:
[1] = in water, no additives used; cited from earlier work
[2] = Dissolution of lomustine in aqueous cyclodextrin solution (solubility); format: physicochemical
From the text: However, they made an unexpected discovery that a methyl-β-CD (methyl-β-cyclodextrin) solution was able to dissolve lomustine crystals to the aqueous phase within a few seconds. They determined that the mechanism of this process is mostly related to co-dissolution rather than the formation of an inclusion complex as is often the case. In this respect, the formation of an inclusion complex usually takes from a few to several hours and requires constant mixing, heating and the use of a co-solvent such as ethanol or methanol.
The present invention provides a method of preparing a liposomal form of lomustine by (i) producing its aqueous solution of high concentration and (ii) then encapsulating it in the aqueous space of liposomes. Thanks to the use of selected cyclodextrins it is possible to obtain a high concentration of lomustine in water of ~20 mg / ml. The normal concentration of lomustine is not more than 0.11 mg/ml when no additives are used. This method makes it possible to encapsulate lomustine in the water space of liposomes in the form of its solution in water or/and inclusion complex with cyclodextrins, or to obtain the effect of co-dissolving lomustine and cyclodextrin in an aqueous solution. The main advantage of this solution is to limit the crystallization and escape of the drug from the liposomes by transferring it to an aqueous solution using not organic solvents such as ethanol, but various organic substances that can be administered intravenously without harming the patient and not damaging the liposomes as is the case with high concentrations of ethanol needed to obtain a high concentration of lomustine in water.
For this reason, they were looking for a way to effectively encapsulate the drug in the aqueous space of liposomes as a real solution. While searching for substances that could potentially enable the transfer of lomustine from its crystals to the aqueous phase, inventors unexpectedly discovered that a methyl-β-CD solution dissolved lomustine within a few seconds. […]

[3] = cited from earlier work

O=NN(CCCl)C(=O)NC1CCCCC1 [lomustine]
normal concentration of lomustine [1]: not more than 0.11 mg/ml
concentration of lomustine in solution ([2]; 25% methyl-β-CD solution, room temperature (R.T.)): at least 20 mg/ml
time for dissolution of lomustine crystals to the aqueous phase ([2]; methyl-β-CD solution, room temperature): a few seconds
concentration of lomustine in water ([2]; with selected cyclodextrins): ~ 20 mg / ml
metabolites remaining in the body ([3]; 5 days after administration): 15-20%
time until active metabolites appear in substantial concentrations in CSF ([3]; after oral administration): ≤ 30 min
concentration of metabolites in the cerebrospinal fluid relative to plasma ([3]; in vivo): 150%
cyclohexyl moiety of lomustine bound to plasma proteins ([3]; in vivo): About 600
second phase plasma half-life ([3]; in vivo): 24 to 48 h
detection of lomustine in cerebral spinal fluid (CSF) ([3]; oral, parent drug): not detectable
bioavailability ([3]; orally administered): very low
biotransformation half-life ([3]; throughout the body): less than 1 hour
dose of the drug excreted as metabolites in the urine ([3]; within 24 hours): about half
dose of the drug excreted as metabolites in the urine ([3]; within 4 days): less than 75%
